According to patent US11542288B2, “Antiviral compounds” (priority 2020, dated 2023):

Columns and labels:
[1] = tested on: wild-type HIV-1; assay: HIV antiviral assay (293T / TZM-BL luciferase); type: cell-based; settings: read-out: Antiviral WT EC50
[2] = tested on: SP cells (chronically infected with HTLV-1); assay: SP cell Gag processing (HTLV-1 maturation) immunoblot; type: cell-based; settings: for amount of full-length (FL) Gag and larger size cleavage intermediates (CI): SP cell lysates and supernatants, 50 μM or 100 μM; for FL Gag band percentage (mean±SEM): 48 h
Description: SP Cell Culture and Protease Inhibition Treatments. SP cells were cultured in RPMI (Invitrogen, Carlsbad, Calif., USA) containing 20% HyClone (FC3) from Thermo Scientific (Waltham, Mass.) and 1% penicillin-streptomycin from Life Technologies (Grand Island, N.Y., USA) and supplemented with human IL-2 (Roche Diagnostics, Indianapolis, Ind., USA) at a concentration of 10 U/mL. Cells were grown to a density of […], and the media was exchanged into media containing the drug treatment at the two concentrations tested (50 μM and 100 μM). DMSO was used as a treatment control at the max concentration (0.01% v/v) as used for the sample with the highest inhibitor concentrations. Cells were treated for 48 h in an incubator at 37° C. with 5% CO2. To harvest the samples, the cell culture supernatant and cells were separated with a 5 min spin at 1000 g. The cell culture supernatant was filtered through a 0.22 μm syringe filter and ultracentrifuged over an 8% Optiprep cushion (Millipore Sigma, USA) (109,000 g for 1.5 hat 4° C.) in a 50.1 Ti rotor (Beckman Coulter, USA). The resulting viral pellet was resuspended in 200 μL of RIPA buffer (150 mM NaCl, 1% (v/v) Nonidet P-40, 0.5% sodium deoxycholate, 0.1% SDS, 25 mM Tris pH 7.4) supplemented with a cOmplete, Mini, EDTA-free cellular Protease Inhibitor Cocktail (Roche Diagnostics, Indianapolis, Ind., USA). The SP cell pellet was washed once with phosphate buffered saline (PBS) and resuspended in a final volume of 200 μL of a RIPA buffer cOmplete, Mini, EDTA-free cellular Protease Inhibitor Cocktail (Roche Diagnostics, Indianapolis, Ind., USA). Immunoblot samples were then prepared and detected as described in the previous method section. Gel band quantification analysis was performed using Fiji. A one-tailed t test for two independent means (95% confidence) was used to determine if the FL Gag band from the various drug treatments in the immunoblot analysis was statistically different from the DMSO controls.
To further validate inhibition of HTLV-1 protease, SP cells (which are chronically infected with HTLV-1) were treated with the same inhibitors (FIG. 20). The SP cell line harbors low numbers of HTLV-1 proviruses and produces virus particles that incorporate full-length Gag, which makes SP an ideal cell culture system for testing the inhibition of HTLV-1 maturation. Gag cleavage products were detected by using a CA (p24) primary antibody in both SP cell lysates and virus particles released in the cell culture supernatants. […] For the Ex.7 treatment of the viral particles produced from the SP cells, the FL Gag band percentage was 5.8±2.8% and 12.9±3.1% (mean±SEM) for 50 μM and 100 μM treatments, respectively (FIGS. 21, 23).

[3] = target: T1, HTLV-1 protease (Human T-cell leukemia virus type I, UniProt Q82134, L40I); type: biochemical; design: This protease construct has 9 amino acids removed from the C-terminus to facilitate crystallization; made in house; host or cells: Escherichia coli; settings: 1:1 ratio inhibitor to protease (1 μM), 60 min, 37° C.
[4] = target: T2, HIV-1 protease I84V (Human immunodeficiency virus type 1 group M subtype B, UniProt P12497, I572V/Q495K); assay: HIV enzyme inhibition assay (Ki), I84V variant; type: biochemical; settings: drug-resistant protease variant I84V
T2 construct: onto NL4-3 wild-type protease on a pET11a plasmid; made in house

[5] = target: T3, HIV-1 protease I50V/A71V (Human immunodeficiency virus type 1 group M subtype B, UniProt P12497, A559V/I538V/Q495K); assay: HIV enzyme inhibition assay (Ki), I50V/A71V variant; type: biochemical; settings: drug-resistant protease variant I50V/A71V
T3 construct: onto NL4-3 wild-type protease on a pET11a plasmid; made in house

[6] = target: T4, HIV-1 protease 8 Mutant (Human immunodeficiency virus type 1 group M subtype B, UniProt P12497); assay: HIV enzyme inhibition assay (Ki), 8 Mutant variant; type: biochemical; settings: drug-resistant protease variant 8 Mutant
T4 construct: onto NL4-3 wild-type protease on a pET11a plasmid with codon optimization for protein expression in Escherichia coli; A Q7K mutation was included to prevent autoproteolysis

[7] = target: T5, HIV-1 protease 10 Mutant (Human immunodeficiency virus type 1 group M subtype B, UniProt P12497); assay: HIV enzyme inhibition assay (Ki), 10 Mutant variant; type: biochemical; settings: drug-resistant protease variant 10 Mutant
T5 construct: onto NL4-3 wild-type protease on a pET11a plasmid with codon optimization for protein expression in Escherichia coli; A Q7K mutation was included to prevent autoproteolysis

[8] = target: T6, HIV-1 protease 11 Mutant (Human immunodeficiency virus type 1 group M subtype B, UniProt P12497); assay: HIV enzyme inhibition assay (Ki), 11 Mutant variant; type: biochemical; settings: drug-resistant protease variant 11 Mutant
T6 construct: onto NL4-3 wild-type protease on a pET11a plasmid with codon optimization for protein expression in Escherichia coli; A Q7K mutation was included to prevent autoproteolysis

[9] = target: HIV-1 protease KY24 (Human immunodeficiency virus type 1, UniProt P12497); settings: read-out: Ki KY24; drug-resistant protease variant KY24
[10] = target: T1, HTLV-1 protease; settings: HTLV-1 protease
[11] = target: T1, HTLV-1 protease; assay: biochemical

## CC(C)CN(C[C@@H](O)[C@H](Cc1ccccc1)NC(=O)O[C@H]1CO[C@H]2OCC[C@H]21)S(=O)(=O)c1ccc(N)cc1 [DRV, darunavir, reference compound]
[1]
  EC50: 4.75 nM
[2]
  amount of full-length (FL) Gag and larger size cleavage intermediates (CI): increased
[3]
  inhibition of Gag cleavage and VLP maturation: effectively inhibited Gag cleavage and VLP maturation

## CCOP(=O)(COc1ccc(C[C@H](NC(=O)O[C@H]2CO[C@H]3OCC[C@H]32)[C@H](O)CN(CC(CC)CC)S(=O)(=O)c2ccc(N)cc2)cc1)OCC [Example 7, (3R,3aS,6aR)-hexahydrofuro[2,3-b]furan-3-yl ((2S,3R)-4-((4-amino-N-(2-ethylbutyl)phenyl)sulfonamido)-1-(4-((diethoxyphosphoryl)methoxy)phenyl)-3-hydroxybutan-2-yl)carbamate]
[4]
  Ki: < 0.005 nM
[5]
  Ki: < 0.005 nM
[6]
  Ki: 4.71 ± 0.73 nM
[7]
  Ki: 51.6 ± 5.5 nM
[8]
  Ki: 106 ± 7 nM
[1]
  EC50: 16 nM
[2]; SP cell lysate, 50 μM
  FL Gag band percentage (mean±SEM): 32.4±15.5%
[2]; SP cell lysate, 100 μM
  FL Gag band percentage (mean±SEM): 41.0±13.7%
[2]
  amount of full-length (FL) Gag and larger size cleavage intermediates (CI): increased
[2]; viral particles produced from SP cells, 50 μM
  FL Gag band percentage (mean±SEM): 5.8±2.8%
[2]; viral particles produced from SP cells, 100 μM
  FL Gag band percentage (mean±SEM): 12.9±3.1%
[9]
  Ki: 1.08 ± 0.06 nM
[10]; relative to DRV
  fold improvement of Ki compared to DRV: 26 fold
[10]; relative to UM6
  fold better inhibition than UM6: 4 fold
[11]
  Ki: 30 ± 10 nM
[3]
  inhibition of Gag cleavage and VLP maturation: effectively inhibited Gag cleavage and VLP maturation
